Data reported in patent US20180064635A1, “COSMETIC COMPOSITION COMPRISING SLIME OF SNAIL FED WITH BERRY FRUITS AND PREPARATION METHOD THEREOF” (CREALAND CO., LTD, priority 2015, published 2018).
Each block holds one molecule with its values, some of them ahead of it.

How the values were obtained:
[1] = Active oxygen scavenging test (xanthine/xanthine oxidase, NBT); assay type: biochemical; details: snail slime filtrates, absorbance 540 nm
Description: In the active oxygen scavenging test, changes on the absorbance are measured using the oxidation of nitroblue tetrazolium (NBT) by active oxygen by using active oxygen generation upon enzymatic reaction of xanthine/xanthine oxidase (Sigma), thus the scavenging ability of the active oxygen can be confirmed.
2.4 ml of sodium carbonate (Na2CO3), 0.1 ml of xanthine (Sigma), 0.1 ml of ethylene diamine tetra acetic acid (EDTA), 0.1 ml of bovine serum albumin (BSA, Sigma), 0.1 ml of NBT, and 1 ml of the snail slime filtrates prepared in Examples 1 and 2 and Comparative Examples 1 and 2 were added, vortexing was carried out by using a vortex mixer (Type 37600 Mixer, Mini mix, USA), the mixture was left at 25° C. for 10 minutes. After 0.1 ml of xanthine oxidase was added and reacted at 25° C. for 20 minutes, the reaction was stopped by inputting 6 mM of CuCl2, and the absorbance was measured at the wavelength of 540 nm by using a microplate reader (UVT-06685, Thermo max, USA).
The control group in the active oxygen scavenging activity test was measured in the same manner by inputting third distilled water instead of the sample solution. […]
Active oxygen scavenging rate (%)=100−((absorbance of sample/absorbance of control group)×100)

[2] = Free radical scavenging test (DPPH); assay type: biochemical; details: snail slime filtrates, 37° C. 15 minutes, absorbance 540 nm
Description: A free radical scavenging test and a reactive oxygen scavenging test were performed in order to confirm the antioxidant effect of the snail slime filtrates prepared in Examples 1 and 2 and Comparative Examples 1 and 2, as a verifying test for a skin aging improvement effect.
The snail slime filtrates prepared in the above Examples 1 and 2 and Comparative Examples 1 and 2 were diluted with methanol in a predetermined concentration, and 1 ml of the dilution was mixed with 1 ml of a 0.1 mM 2,2-diphenyl-1-picryl-hydrazyl radical (DPPH, Sigma) solution. After the mixture leaves at 37° C. for 15 minutes, the absorbance was measured at the wavelength of 540 nm by using a microplate reader (Thermo max, USA).
In the above free radical scavenging test, the control group was measured In the same manner by inputting 1 ml of DPPH and 1 ml of methanol, and color correction values were obtained with respect to each of the sample and the control group by inputting 1 ml of methanol and 1 ml of sample.
SC50 is the concentration of the sample required to scavenge 50% of the free radicals, and the smaller value indicates the higher antioxidant activity.
Free radical scavenging rate (%)=100−((absorbance of sample/absorbance of control group)×100)

[3] = Skin moisturizing effect, capacitance measurement on flexor surface of the forearm; assay type: in vivo, human (30 females in their 20s and 30s); details: 1 wt % aqueous solution, 2.0 mg/cm2
Description: Measurement of moisturizing effect of snail slime filtrates prepared in Examples 1 and 2 and Comparative Examples 1 and 2 was carried out by a capacitance measurement scheme using an oil and moisture analyzer (WSK-P500U, Inforward. Inc., Japan). 1 wt % an aqueous solution of the snail slime filtrates prepared in Examples 1 and 2 and Comparative Examples 1 and 2 was compared with 1 wt % aqueous solution of hyaluronic acid sodium salt (Sigma) which is known to be excellent in a skin moisturizing effect based on various studies.
30 females in their 20s and 30s were targeted, a flexor surface of the forearm was allowed to acclimate to a constant temperature and humidity chamber (22° C. and 40-60% of relative humidity) for 20 minutes right before the test starts, and the moisture of the skin was constantly maintained. Then, after measuring the initial moisture content of an application site of each sample using the oil and moisture analyzer (WSK-P500U, Inforward. Inc., Japan), each of the samples at 2.0 mg/cm2 was applied at a different position for each examinee to minimize an error according to the flexor surface of the forearm. The skin moisture was firstly measured at time intervals of 10 minutes, 30 minutes, 50 minutes, 90 minutes, and 120 minutes after the application, and after 2 hours, the skin moisture was measured again.
Each measurement site was measured repeatedly for three times and skin moisture was calculated by the average value.

Active oxygen scavenging rate IC50 [1]: 154 ppm
Molecule: Cc1cc(C(C)(C)C)c(O)c(C(C)(C)C)c1 [BHT]
Free radical scavenging rate SC50 [2]: 125 ppm

Molecule: hyaluronic acid sodium salt
Moisture content subject to time after application ([3]; 10 minutes after application): 61.31 A.U
Moisture content subject to time after application ([3]; 30 minutes after application): 58.24 A.U
Moisture content subject to time after application ([3]; 50 minutes after application): 57.21 A.U
Moisture content subject to time after application ([3]; 90 minutes after application): 55.87 A.U
Moisture content subject to time after application ([3]; 120 minutes after application): 52.11 A.U
